Laboratory results reported in US20230277490A1, “GLUTAMINE AS AN ANTICANCER THERAPY IN SOLID TUMORS” (CEDARS-SINAI MEDICAL CENTER, priority 2020, published 2023).
Values belong to the compound of their own block, whether it stands above or below them.

Tests used:
PDAC cells [1] = experiment: Glutamine supplementation with increasing concentrations of gemcitabine in PDAC cells; type: cell-based
Text: The ability of L-Gln supplementation to […] intracellular nucleotide stores makes it an attractive agent to pair with gemcitabine, a standard chemotherapy used in the treatment of PDAC patients whose activity is also based on its ability to inhibit DNA synthesis.
We show herein that glutamine deprivation through glutaminase inhibition increases cancer cell survival and potentiates resistance to gemcitabine in PDAC cells.

Mia PaCa-2 cells [2] = experiment: Antitumor efficacy of L-Gln supplementation and CB-839 in vitro (FIG. 7); type: cell-based; conditions: for antitumor efficacy: single agent, Mia PaCa-2 cells in vitro
pancreatic cancer cells [3] = experiment: Metabolomic mass spectrometric analysis of metabolite levels; type: cell-based, human
Protocol: We tested how elevated glutamine affects gemcitabine efficacy. […] We next tested the metabolic impact of super-physiologic glutamine concentration (40 mM) on the gemcitabine response (0.5 μM) of pancreatic cancer cells through standard metabolomic mass spectrometric analysis. The heat map in FIG. 3 illustrates the differential metabolite accumulation with glutamine and gemcitabine treatment, as single agent and in combination. There were a number of metabolic changes that were only observed with the combination treatment. […] Importantly, high glutamine administration would reduce the concentration of gemcitabine required to cause significant cancer cell death.

PDAC cells [4] = type: cell-based
Text: As L-Gln supplementation enhances the efficacy of chemotherapy, we tested whether L-Gln can lower the effective dose of gemcitabine.

Mia PaCa-2 cells [5] = experiment: Intracellular sodium by sodium green fluorescence intensity; type: cell-based; conditions: MIA PaCa-2 cells in vitro; L-Gln 40 mM, D-Gln high dose
pancreatic cancer cells [6] = experiment: Basal metabolic rate and mitochondrial proton leakage of pancreatic cancer cells; type: cell-based, human
[7] = tested on: Pancreatic cancer cells (MIAPaCa human cell line); experiment: Relative cell number / gemcitabine dose response with glutamine; type: cell-based; conditions: for IC50: Homo sapiens, MIAPaCa cells
PDAC mouse models = conditions: in vivo; cited from earlier work
PDAC cells [8] = experiment: PDAC cell growth / cell death in vitro; type: cell-based; conditions: D-Gln high dose
melanoma tumor = conditions: dietary supplementation; cited from earlier work
pancreatic cancer cells [9] = experiment: DNA damage accumulation; type: cell-based, human; conditions: combination of glutamine and gemcitabine over either single agent
[10] = at 23° C.; cited from earlier work
[11] = enteral glutamine, 47 prospective trials, over 1600 adult patients; cited from earlier work
[12] = combination 40 mM glutamine and 0.5 μM gemcitabine

SMILES: NC(=O)CC[C@H](N)C(=O)O [L-Gln, L-glutamine]
antitumor effects of gemcitabine (PDAC cells [1]; L-Gln 40 mM compared to 2 mM, several PDAC cell lines): consistently enhanced the antitumor effects of gemcitabine
antitumor efficacy over time (Mia PaCa-2 cells [2]; 40 mM L-Gln compared to control 2 mM L-Gln): consistently better with antitumor efficacy
antitumor activity under glutaminase inhibition (Mia PaCa-2 cells [2]; L-Gln together with CB-839): occurred independently of glutaminase inhibition with CB-839
antitumor efficacy (Mia PaCa-2 cells [2]): greater antitumor activity
TCA cycle metabolite levels (pancreatic cancer cells [3]; 40 mM L-Gln): did not affect the majority of TCA cycle metabolites
intracellular essential and conditionally amino acids (pancreatic cancer cells [3]; 40 mM compared to 2 mM L-Gln, PDAC cells in vitro): significantly depleted
intracellular nucleotide stores (pancreatic cancer cells [3]; 40 mM compared to control 2 mM L-Gln): significantly depleted
colony formation with 5-FU (PDAC cells [4]): as effective or even more effective than 5-FU at 0.1 uM
colony formation with gemcitabine (PDAC cells [4]; 20 mM L-Gln plus gemcitabine): can enhance the efficacy gemcitabine
colony formation with paclitaxel (PDAC cells [4]; high-dose L-Gln plus paclitaxel): enhances the efficacy of paclitaxel
intracellular sodium (Mia PaCa-2 cells [5]): increases intracellular sodium levels

IC50 ([7]; MIA PaCa-2, in the presence of 2 mM glutamine (physiologic concentration)): 666 nM
IC50 ([7]; MIA PaCa-2, with 40 mM glutamine (super-physiologic concentration)): 179 nM
SMILES: Nc1ccn([C@@H]2O[C@H](CO)[C@@H](O)C2(F)F)c(=O)n1 [gemcitabine]
basal metabolic rate (pancreatic cancer cells [6]; gemcitabine alone): elevated
mitochondrial proton leakage (pancreatic cancer cells [6]; gemcitabine alone): induced

SMILES: O=C(Cc1cccc(OC(F)(F)F)c1)Nc1ccc(CCCCc2nnc(NC(=O)Cc3ccccn3)s2)nn1 [CB-839]
antitumor efficacy (Mia PaCa-2 cells [2]): some antitumor efficacy
efficacy in PDAC mouse models (PDAC mouse models): failed

SMILES: C[C@@H]1O[C@@H](O[C@H]2C[C@@H](O)[C@]3(CO)[C@H]4[C@H](O)C[C@]5(C)[C@@H](C6=CC(=O)OC6)CC[C@]5(O)[C@@H]4CC[C@]3(O)C2)[C@H](O)[C@H](O)[C@H]1O [Ouabain]
PDAC cell growth / cell death (PDAC cells [8]): greater PDAC cell death
intracellular sodium (Mia PaCa-2 cells [5]): leads to build up of intracellular sodium

SMILES: NC(=O)CC[C@H](N)C(=O)O [glutamine]
PDAC cell death with increasing concentrations of gemcitabine (PDAC cells [1]; glutamine supplementation): enhancement of PDAC cell death
cancer cell viability with increasing concentrations of gemcitabine (PDAC cells [1]; glutamine supplementation in the face of glutaminase inhibition): decreased cancer cell viability
sensitivity to gemcitabine (PDAC cells [1]; glutamine supplementation, even in the face of glutaminase inhibition): enhances sensitivity to gemcitabine
free nucleotides (pancreatic cancer cells [3]; [12]): accumulation of free nucleotides
vitamin C and SAM levels (pancreatic cancer cells [3]; [12]): accumulation of vitamin C and S-adenosine methionine (SAM)
mitochondrial proton leakage induced by gemcitabine (pancreatic cancer cells [6]; additional glutamine treatment): reduced
basal metabolic rate (pancreatic cancer cells [6]; combination of 40 mM glutamine and 0.5 μM gemcitabine): further elevated still
melanoma tumor growth (melanoma tumor): can inhibit melanoma tumor growth
cell death ([7]; combination of elevated concentrations of glutamine and gemcitabine compared to either alone): dramatic increase in cell death
DNA damage (pancreatic cancer cells [9]): greater DNA damage accumulation
solubility [10]: 3.6%
tolerability [11]: well-tolerated
